Data reported in BindingDB's records for doi:10.7270/Q2TB15BF (Nmmlsc, 2009).

Target: Cell division control protein 42 homolog (Homo sapiens, UniProt P60953)
Experiment: inhibition of fluorescent GTP binding to Cdc42 wt – biochemical, bead-based multiplex flow cytometry, additional SAR set, SAR follow-up (AID 2022)

Sequence of Cell division control protein 42 homolog (P60953 whole entry): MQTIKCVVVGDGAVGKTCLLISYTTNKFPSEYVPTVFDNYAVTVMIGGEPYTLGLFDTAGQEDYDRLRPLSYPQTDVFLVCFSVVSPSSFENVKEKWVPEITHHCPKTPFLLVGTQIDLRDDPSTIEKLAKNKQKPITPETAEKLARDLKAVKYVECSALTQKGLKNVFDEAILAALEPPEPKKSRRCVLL

Ki	Compound
5930 nM	O=C1N=c2c(F)cccc2=C1c1[nH]c2ccccc2c1NO [7-fluoro-3-[3-(hydroxyamino)-1H-indol-2-yl]-2-indolone]
10 nM	O=C1Nc2c(Cl)cccc2C1=C1Nc2ccccc2C1=O
